The source of these data is patent US9050345B2, “Pyrrolotriazines as potassium ion channel inhibitors” (BRISTOL-MYERS SQUIBB COMPANY, priority 2013, dated 2015).

For the first test, the target named is T1, human KV 1.5 (IKur) (Homo sapiens, UniProt P22460).
T1 construct: expressed in transfected cells
T1 sequence (P22460 whole entry): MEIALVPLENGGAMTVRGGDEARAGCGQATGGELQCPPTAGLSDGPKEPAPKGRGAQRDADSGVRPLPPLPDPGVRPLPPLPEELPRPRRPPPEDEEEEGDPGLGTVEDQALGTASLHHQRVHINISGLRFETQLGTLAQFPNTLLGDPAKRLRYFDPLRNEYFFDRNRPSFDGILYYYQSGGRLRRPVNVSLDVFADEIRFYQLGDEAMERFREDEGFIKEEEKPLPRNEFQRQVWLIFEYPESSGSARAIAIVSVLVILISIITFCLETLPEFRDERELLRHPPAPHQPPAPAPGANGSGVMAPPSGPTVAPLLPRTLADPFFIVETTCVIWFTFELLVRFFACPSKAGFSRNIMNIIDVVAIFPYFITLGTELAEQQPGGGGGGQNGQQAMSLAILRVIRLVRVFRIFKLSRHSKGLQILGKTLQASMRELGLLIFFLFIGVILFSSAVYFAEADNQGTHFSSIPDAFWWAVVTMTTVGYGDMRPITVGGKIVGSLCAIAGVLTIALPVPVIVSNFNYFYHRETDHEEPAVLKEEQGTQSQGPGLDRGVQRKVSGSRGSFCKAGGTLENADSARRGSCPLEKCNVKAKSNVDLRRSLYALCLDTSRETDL
Briefly: block of IKur current in patch clamped L-929 cells expressing human Kv1.5. Format: cell-based. As to conditions: 0.3 μM; patch clamped mammalian L-929 cells stably expressing human Kv1.5. For orientation: The patch-clamp technique gives a direct electrical read-out from membranes.
Take `NS(=O)(=O)c1cncc(-c2nc(NC3CCCc4cccnc43)c3c(-c4ccccc4)ccn3n2)c1` (stereo not drawn) [Example 171, 5-(5-phenyl-4-((5,6,7,8-tetrahydroquinolin-8-yl)amino)pyrrolo[2,1-f] [1,2,4]triazin-2-yl)pyridine-3-sulfonamide]: the “KV1_5% Inh L929 @0.3 μM” value was found to be 97.64%.

In the case of `OCC(O)c1cncc(-c2nc(NCc3ccccc3)c3c(-c4ccccc4)ccn3n2)c1` (stereo not drawn) [Example 14, 1-(5-(4-(Benzylamino)-5-phenylpyrrolo[1,2-f][1,2,4]triazin-2-yl)pyridin-3-yl)ethane-1,2-diol], the “KV1_5% Inh L929 @0.3 μM” value was determined as 90.60%.

The test is the same for the next values; noted with them: L929, 0.3 μM; patch clamped mammalian L-929 cells stably expressing human Kv1.5; read-out: KV1_5% Inh L929 @0.3 μM.
Consider `NS(=O)(=O)c1cncc(-c2nc(NCc3cccnc3)c3c(-c4ccccc4)ccn3n2)c1` [Example 158, 5-(5-phenyl-4-(pyridin-3-ylmethylamino)pyrrolo [1,2-f][1,2,4]triazin-2-yl)pyridine-3-sulfonamide], for which the inhibition at 0.3 µM was determined as 92%.

Consider `COc1cccc(CNc2nc(-c3cnc(OC)c(S(N)(=O)=O)c3)nn3ccc(-c4ccccc4)c23)n1` [Example 139, 2-methoxy-5-(4-(((6-methoxypyridin-2-yl)methyl)amino)-5-phenylpyrrolo [2,1-f][1,2,4]triazin-2-yl)pyridine-3-sulfonamide], for which the inhibition at 0.3 µM amounted to 98.5%.

Regarding `COC(=O)c1ccccc1CNc1nc(-c2cncc(S(N)(=O)=O)c2)nn2ccc(-c3ccccc3)c12` [Example 167, methyl 2-(((5-phenyl-2-(5-sulfamoylpyridin-3-yl)pyrrolo[2,1-f][1,2,4]triazin-4-yl)amino)methyl) benzoate], the inhibition at 0.3 µM turned out to be 89.8%.

Take `COc1ccc(-c2ccn3nc(-c4cncc(S(N)(=O)=O)c4)nc(NCc4ccccn4)c23)cc1` [Example 105, 5-(5-(4-methoxyphenyl)-4-(pyridin-2-ylmethylamino)pyrrolo[1,2-f][1,2,4]triazin-2-yl)pyridine-3-sulfonamide]: the inhibition at 0.3 µM was determined as 89.3%.

As to `CCOC(=O)CCNC(=O)c1cncc(-c2nc(NCc3ccccc3)c3c(-c4ccccc4)ccn3n2)c1` [Example 89, ethyl 3-(5-(4-(benzylamino)-5-phenylpyrrolo [1,2-f][1,2,4]triazin-2-yl)nicotinamido) propanoate], the inhibition at 0.3 µM turned out to be 97%.

Regarding `N#C[C@@H]1C[C@H]1c1nc(NCc2ccccn2)c2c(-c3ccccc3)ccn2n1` (racemic) [Example 43, (±)-2-(5-Phenyl-4-(pyridin-2-ylmethylamino)pyrrolo[1,2-f][1,2,4]triazin-2-yl)cyclopropanecarbonitrile], the inhibition at 0.3 µM amounted to 98.6%.

For the compound `NS(=O)(=O)c1cc(-c2nc(NCc3ccccc3)c3c(-c4ccccc4)ccn3n2)cnc1O` [Example 16, 5-(4-(Benzylamino)-5-phenylpyrrolo[1,2-f][1,2,4]triazin-2-yl)-2-hydroxypyridine-3-sulfonamide], the inhibition at 0.3 µM came to 91.1%.

On to `NS(=O)(=O)c1cncc(-c2nc(NCc3c(F)cccc3F)c3c(-c4ccccc4)ccn3n2)c1` [Example 79, 5-(4-(2,6-difluorobenzylamino)-5-phenylpyrrolo [1,2-f][1,2,4]triazin-2-yl)pyridine-3-sulfonamide], for which the inhibition at 0.3 µM is 96%.

With `NS(=O)(=O)c1cncc(-c2nc(NCc3ccccn3)c3c(-c4ccccc4)ccn3n2)c1` [Example 2, 5-(5-Phenyl-4-(pyridin-2-ylmethylamino)pyrrolo[1,2-f][1,2,4]triazin-2-yl)pyridine-3-sulfonamide], the inhibition at 0.3 µM was 98.5%.

For `COc1ncc(-c2nc(N3Cc4cccnc4C3)c3c(-c4ccccc4)ccn3n2)cc1S(N)(=O)=O` [Example 40, 2-Methoxy-5-(5-phenyl-4-(5H-pyrrolo[3,4-b]pyridin-6(7H)-yl)pyrrolo[1,2-f][1,2,4]triazin-2-yl)pyridine-3-sulfonamide], the inhibition at 0.3 µM was 40.4%.

Regarding `NS(=O)(=O)c1cncc(-c2nc(NCc3ccccn3)c3c(-c4cccc(F)c4)ccn3n2)c1` [Example 104, 5-(5-(3-fluorophenyl)-4-(pyridin-2-ylmethylamino)pyrrolo[1,2-f][1,2,4]triazin-2-yl)pyridine-3-sulfonamide], the inhibition at 0.3 µM was 95.7%.

As for `OCc1cncc(-c2nc(NCc3ccccc3)c3c(-c4ccccc4)ccn3n2)c1` [Example 20, (5-(4-(Benzylamino)-5-phenylpyrrolo[1,2-f][1,2,4]triazin-2-yl)pyridin-3-yl)methanol], the inhibition at 0.3 µM is 96.6%.

With `NC(=O)c1cncc(-c2nc(NCc3ccccn3)c3c(-c4ccccc4)ccn3n2)c1` [Example 9, 5-(5-Phenyl-4-(pyridin-2-ylmethylamino)pyrrolo[1,2-f][1,2,4]triazin-2-yl)nicotinamide], the inhibition at 0.3 µM is 98.4%.

For `CS(=O)(=O)Nc1cccc(NC(=O)c2nc(NCc3ccccc3)c3c(-c4ccccc4)ccn3n2)c1` [Example 27, 4-(Benzylamino)-N-(3-(methylsulfonamido)phenyl)-5-phenylpyrrolo[1,2-f][1,2,4]triazine-2-carboxamide], the inhibition at 0.3 µM was determined as 93.2%.

With `COc1ncc(-c2nc(NCc3ccccc3)c3c(-c4ccccc4)ccn3n2)cc1S(N)(=O)=O` [Example 94, 5-(4-(benzylamino)-5-phenylpyrrolo [1,2-f][1,2,4]triazin-2-yl)-2-methoxypyridine-3-sulfonamide], the inhibition at 0.3 µM is 95.8%.

In the case of `O=C(NC[C@H](O)c1ccccc1)c1nc(NCc2ccccc2)c2c(-c3ccccc3)ccn2n1` [Example 119, (R)-4-(benzylamino)-N-(2-hydroxy-2-phenylethyl)-5-phenylpyrrolo [1,2-f][1,2,4] triazine-2-carboxamide], the inhibition at 0.3 µM was determined as 67.5%.

On to `O=C(Nc1ccc(-n2cncn2)cc1)c1nc(NCc2ccccc2)c2c(-c3ccccc3)ccn2n1` [Example 123, N-(4-(1H-1,2,4-triazol-1-yl)phenyl)-4-(benzylamino)-5-phenylpyrrolo [1,2-f][1,2,4] triazine-2-carboxamide], for which the inhibition at 0.3 µM was determined as 63.5%.

Consider `CC(=O)Nc1cncc(-c2nc(NCc3ccccn3)c3c(-c4ccccc4)ccn3n2)n1` [Example 42, N-(6-(5-Phenyl-4-(pyridin-2-ylmethylamino)pyrrolo[1,2-f][1,2,4]triazin-2-yl)pyrazin-2-yl)acetamide], for which the inhibition at 0.3 µM was found to be 99.4%.

`COC(=O)NC1(c2nc(NCc3ccccn3)c3c(-c4ccccc4)ccn3n2)CC1` [Example 35, Methyl 1-(5-phenyl-4-(pyridin-2-ylmethylamino)pyrrolo[1,2-f][1,2,4]triazin-2-yl)cyclopropylcarbamate]: the inhibition at 0.3 µM was 92.8%.

Consider `NS(=O)(=O)c1cncc(-c2nc(NCc3ncccc3F)c3c(-c4ccccc4)ccn3n2)c1` [Example 138, 5-(4-(((3-fluoropyridin-2-yl)methyl)amino)-5-phenylpyrrolo [2,1-f][1,2,4]triazin-2-yl) pyridine-3-sulfonamide], for which the inhibition at 0.3 µM came out at 96.2%.

Consider `CCOc1ncc(-c2nc(NCc3ccccn3)c3c(-c4ccccc4)ccn3n2)cc1S(N)(=O)=O` [Example 134, 2-ethoxy-5-(5-phenyl-4-((pyridin-2-ylmethyl)amino)pyrrolo [2,1-f][1,2,4]triazin-2-yl)pyridine-3-sulfonamide], for which the inhibition at 0.3 µM was 95%.

As for `NS(=O)(=O)c1cncc(-c2nc(NCc3ccccn3)c3c(-c4ccccc4)ccn3n2)c1C(F)F` [Example 182, 4-(difluoromethyl)-5-(5-phenyl-4-((pyridin-2-ylmethyl)amino)pyrrolo [2,1-f][1,2,4]triazin-2-yl)pyridine-3-sulfonamide], the inhibition at 0.3 µM came to 93.7%.

On to `COc1ccc(CNC(=O)c2nc(NCc3ccccc3)c3c(-c4ccccc4)ccn3n2)c(OC)c1` [Example 125, 4-(benzylamino)-N-(2,4-dimethoxybenzyl)-5-phenylpyrrolo [1,2-f][1,2,4] triazine-2-carboxamide], for which the inhibition at 0.3 µM was 88.7%.

For the compound `OCC(O)c1cncc(-c2nc(NCc3ccccc3)c3c(-c4ccccc4)ccn3n2)c1` (stereo not drawn) [Example 14, 1-(5-(4-(Benzylamino)-5-phenylpyrrolo[1,2-f][1,2,4]triazin-2-yl)pyridin-3-yl)ethane-1,2-diol], the inhibition at 0.3 µM is 95%.

As for `OCC(CO)c1cncc(-c2nc(NCc3ccccc3)c3c(-c4ccccc4)ccn3n2)c1` [Example 24, 2-(5-(4-(Benzylamino)-5-phenylpyrrolo[1,2-f][1,2,4]triazin-2-yl)pyridin-3-yl)propane-1,3-diol], the inhibition at 0.3 µM turned out to be 63.5%.

For `CC(C)Oc1ncc(-c2nc(NCc3ccccn3)c3c(-c4ccccc4)ccn3n2)cc1S(N)(=O)=O` [Example 41, 2-Isopropoxy-5-(5-phenyl-4-((pyridin-2-ylmethyl)amino)pyrrolo[2,1-f][1,2,4]triazin-2-yl)pyridine-3-sulfonamide], the inhibition at 0.3 µM was determined as 95.1%.

With `NS(=O)(=O)c1cncc(-c2nc(NCc3ccncn3)c3c(-c4ccccc4)ccn3n2)c1` [Example 165, 5-(5-phenyl-4-((pyrimidin-4-ylmethyl)amino)pyrrolo [2,1-f][1,2,4]triazin-2-yl)pyridine-3-sulfonamide], the inhibition at 0.3 µM stood at 90.3%.

Regarding `CCOC(=O)CS(=O)(=O)Nc1cccc(-c2nc(NCc3ccccn3)c3c(-c4ccccc4)ccn3n2)c1` [Example 60, ethyl 2-(N-(3-(5-phenyl-4-(pyridin-2-ylmethylamino)pyrrolo[1,2-f][1,2,4]triazin-2-yl)phenyl)sulfamoyl)acetate], the inhibition at 0.3 µM was determined as 97.6%.

With `NS(=O)(=O)c1cncc(-c2nc(NCc3nccs3)c3c(-c4ccccc4)ccn3n2)c1` [Example 163, 5-(5-phenyl-4-((thiazol-2-ylmethyl)amino)pyrrolo [2,1-f][1,2,4]triazin-2-yl)pyridine-3-sulfonamide], the inhibition at 0.3 µM was 97.5%.

With `COC(=O)c1cccc(-c2nc(NCc3ccccn3)c3c(-c4ccccc4)ccn3n2)c1` [Example 86, methyl 3-(5-phenyl-4-(pyridin-2-ylmethylamino)pyrrolo[1,2-f][1,2,4]triazin-2-yl)benzoate], the inhibition at 0.3 µM worked out at 86.3%.

Take `CC(=O)Nc1cncc(-c2nc(NCc3ccccn3)c3c(-c4ccccc4)ccn3n2)c1` [Example 47, N-(5-(5-phenyl-4-(pyridin-2-ylmethylamino)pyrrolo[1,2-f][1,2,4]triazin-2-yl)pyridin-3-yl)acetamide]: the inhibition at 0.3 µM is 94.8%.
